Assay results: patent publication US20150025120A1, “PYRAZOLE-ALCOHOL COMPOUNDS AND PHARMACEUTICAL USE THEREOF” (JAPAN TOBACCO INC., priority 2013, published 2015)

Legend:
human PDHK2 (hPDHK2) = molecular target: T1, human PDHK2 (hPDHK2) (Homo sapiens, UniProt Q15119); experiment: Inhibitory action of PDHK2 activity in vitro (residual PDH activity after kinase reaction); type: biochemical
T1 construct: made in house; host or cells: Escherichia coli BL21(DE3), pET17b
Procedure: The inhibitory action of PDHK activity was assessed indirectly by measuring the residual PDH activity after kinase reaction in the presence of a test compound.
In the case of human PDHK2 (hPDHK2, Genbank Accession No. BC040478.1), modified hPDHK2 cDNA wherein FLAG-Tag sequence was added to the N terminus of hPDHK2 cDNA clone (pReceiver-M01/PDK2-GeneCopoeia) was prepared by PCR and cloned into a vector (pET17b-Novagen). The recombinant construct was transformed into Escherichia coli (DH5α-TOYOBO). The recombinant clones were identified, and plasmid DNA was isolated and subjected to the DNA sequence analysis. One clone which had the expected nucleic acid sequence was selected for expression work.
For expression of hPDHK2 activity, Escherichia coli strain BL21(DE3) cells (Novagen) were transformed with the pET17b vector containing modified hPDHK2 cDNA. The Escherichia coli were grown to an optical density 0.6 ([…]) at 30° C. Protein expression was induced by the addition of 500 μmol/L isopropyl-β-thiogalactopyranoside. The Escherichia coli were cultured at 30° C. for 5 hr and harvested by centrifugation. Resuspension of the Escherichia coli paste was disrupted by a microfluidizer. FLAG-Tagged protein was purified using FLAG affinity gel. The gel was washed with 20 mmol/L HEPES-NaOH, 500 mmol/L sodium chloride, 1% ethylene glycol, and 0.1% Pluronic F-68 (pH 8.0), and the binding protein was eluted with 20 mmol/L HEPES-NaOH, 100 μg/mL FLAG peptide, 500 mmol/L sodium chloride, 1% ethylene glycol, and 0.1% Pluronic F-68 (pH 8.0). The eluted fractions containing FLAG-Tagged protein were pooled, dialyzed against 20 mmol/L HEPES-NaOH, 150 mmol/L sodium chloride, 0.5 mmol/L EDTA, 1% ethylene glycol, and 0.1% Pluronic F-68 (pH 8.0), and preserved at −80° C.
0.05 U/mL PDH and 0.8 μg/mL hPDHK2 were mixed in a buffer (50 mmol/L 3-morpholinopropanesulfonic acid (pH 7.0), 20 mmol/L dipotassium hydrogen phosphate, 60 mmol/L potassium chloride, 2 mmol/L magnesium chloride, 0.4 mmol/L EDTA, and 0.2% Pluronic F-68, 2 mmol/L dithiothreitol), and the mixture was incubated at 4° C. overnight to obtain a PDH/hPDHK2 complex. The test compounds were diluted with DMSO. […] DMSO (1.5 μL) was added to control wells instead of the test compound. […] The mixture was incubated at room temperature for 90 min, and the residual PDH activity was measured. The absorbance at 340 nm before and after PDH reaction was measured using a microplate reader to detect NADH produced by the PDH reaction. The hPDHK2 inhibition rate (%) of the test compound was calculated from the formula [{(PDH activity of test compound−PDH activity of control)/PDH activity of blank−PDH activity of control)}×100].

[1] = Metabolic stability test in liver microsome (rat); type: in vitro ADME

IC50 (human PDHK2 (hPDHK2)) | stability in liver microsome (residual ratio %) ([1]; 10 min) | stability in liver microsome (residual ratio %) ([1]; 60 min) | SMILES
9.7 nM | 95.1% | 93.6% | CC(C)(O)COc1cc(-c2cnn(CC(C)(C)O)c2)c2c(c1)[C@@](O)(C(F)(F)F)c1ccccc1-2 [compound (2), (9R)-2-(2-hydroxy-2-methylpropoxy)-4-[1-(2-hydroxy-2-methylpropyl)-1H-pyrazol-4-yl]-9-(trifluoromethyl)-9H-fluoren-9-ol]
 | 101.1% | 92.1% | Cn1cc(-c2cc(OCC(C)(C)O)cc3c2-c2ccccc2[C@]3(O)C(F)(F)F)cn1 [compound (B), (9R)-2-(2-Hydroxy-2-methylpropoxy)-4-(1-methyl-1H-pyrazol-4-yl)-9-(trifluoromethyl)-9H-fluoren-9-ol, reference compound]

The remaining lines, values behind:

SMILES | IC50 (human PDHK2 (hPDHK2)) | stability in liver microsome (residual ratio %) ([1]; 10 min) | stability in liver microsome (residual ratio %) ([1]; 60 min)
CC(C)(O)CCCOc1cc(-c2cnn(CC(C)(C)O)c2)c2c(c1)[C@@](O)(C(F)(F)F)c1ccccc1-2 [compound (4), (9R)-2-(4-hydroxy-4-methylpentyloxy)-4-[1-(2-hydroxy-2-methylpropyl)-1H-pyrazol-4-yl]-9-(trifluoromethyl)-9H-fluoren-9-ol] | 6.6 nM | 98.9% | 93.5%
C[C@H](O)COc1cc(-c2cnn(CC(C)(C)O)c2)c2c(c1)[C@@](O)(C(F)(F)F)c1ccccc1-2 [compound (1), (9R)-4-[1-(2-hydroxy-2-methylpropyl)-1H-pyrazol-4-yl]-2-((2S)-2-hydroxypropoxy)-9-(trifluoromethyl)-9H-fluoren-9-ol] | 9.2 nM | 102.0% | 95.4%
NC(=O)Cn1cc(-c2cc(OCCC34CC5CC(CC(O)(C5)C3)C4)cc3c2-c2ccccc2[C@]3(O)C(F)(F)F)cn1 [compound (A), 2-(4-{(9R)-9-Hydroxy-2-[2-(3-hydroxyadamantan-1-yl)ethoxy]-9-(trifluoromethyl)-9H-fluoren-4-yl}-1H-pyrazol-1-yl)acetamide, reference compound] |  | 24.8% | 0.0%
